# Assays:
# Settings in all cases: exposure time: 90 min
# [1] = tested on: 1083 (donor line of iPSC-derived cardiomyocytes); experiment: POD (EC95) for loss of peak frequency (asystole) vs vehicle; higher = less potent (higher point of departure)
# Description: (§1)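 Human iPSC-derived cardiomyocytes from 16 donors were exposed for 90 min at 37 °C to each PFAS at 0.1, 1, 10 and 100 µM in 0.5% DMSO, 384-well plates. Kinetic Ca2+ flux (FLIPR) and Hoechst nuclei counts were normalised to vehicle wells and fitted with a hierarchical Bayesian Hill model to give donor-specific PODs: EC05 for beat-rate increase or decrease and for decay-to-rise ratio increase (QT proxy), EC95 for peak-frequency loss (asystole), EC10 for total cell number loss. 0.03 µM is the lower bound.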
# [2] = tested on: 1118 (donor line of iPSC-derived cardiomyocytes); experiment: as above
# Description: as §1
# [3] = tested on: 11235 (donor line of iPSC-derived cardiomyocytes); experiment: as above
# Description: as §1
# [4] = tested on: 1309 (donor line of iPSC-derived cardiomyocytes); experiment: as above
# Description: as §1
# [5] = tested on: 1368 (donor line of iPSC-derived cardiomyocytes); experiment: as above
# Description: as §1
# [6] = tested on: 1518 (donor line of iPSC-derived cardiomyocytes); experiment: as above
# Description: as §1
# [7] = tested on: 20084 (donor line of iPSC-derived cardiomyocytes); experiment: as above
# Description: as §1
# [8] = tested on: 30171 (donor line of iPSC-derived cardiomyocytes); experiment: as above
# Description: as §1
# [9] = tested on: 1083; experiment: POD (EC10) for decrease in total cell number (cytotoxicity) vs vehicle; higher = less potent (higher point of departure)
# Procedure, shortened: (§2)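 Human iPSC-derived cardiomyocytes from 16 donors were cultured 14 days in 384-well plates, then exposed for 90 min at 37 °C to 0.1, 1, 10 and 100 µM (final, 0.5% DMSO). After the Ca2+ flux read, cells were stained 15 min with Hoechst 33342 (2.2 µg/mL) and MitoTracker Orange and imaged at 10× on an ImageXpress Micro Confocal. Nuclei were counted per field in MetaXpress. Donor-specific cytotoxicity points of departure came from hierarchical Bayesian Hill fits to vehicle-normalised counts, using a 10% decrease.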
# [10] = tested on: 1118; experiment: as above
# Procedure, shortened: as §2
# [11] = tested on: 11235; experiment: as above
# Procedure, shortened: as §2
# [12] = tested on: 1309; experiment: as above
# Procedure, shortened: as §2
# [13] = tested on: 1368; experiment: as above
# Procedure, shortened: as §2
# [14] = tested on: 1434 (donor line of iPSC-derived cardiomyocytes); experiment: as above
# Procedure, shortened: as §2
# [15] = tested on: 1518; experiment: as above
# Procedure, shortened: as §2
# [16] = tested on: 1531 (donor line of iPSC-derived cardiomyocytes); experiment: as above
# Procedure, shortened: as §2
# [17] = tested on: 1535 (donor line of iPSC-derived cardiomyocytes); experiment: as above
# Procedure, shortened: as §2
# [18] = tested on: 1565 (donor line of iPSC-derived cardiomyocytes); experiment: as above
# Procedure, shortened: as §2
# [19] = tested on: 20032 (donor line of iPSC-derived cardiomyocytes); experiment: as above
# Procedure, shortened: as §2
# [20] = tested on: 30171; experiment: as above
# Procedure, shortened: as §2
SMILES,POD vs vehicle [1] [µM],POD vs vehicle [2] [µM],POD vs vehicle [3] [µM],POD vs vehicle [4] [µM],POD vs vehicle [5] [µM],POD vs vehicle [6] [µM],POD vs vehicle [7] [µM],POD vs vehicle [8] [µM],POD vs vehicle [9] [µM],POD vs vehicle [10] [µM],POD vs vehicle [11] [µM],POD vs vehicle [12] [µM],POD vs vehicle [13] [µM],POD vs vehicle [14] [µM],POD vs vehicle [15] [µM],POD vs vehicle [16] [µM],POD vs vehicle [17] [µM],POD vs vehicle [18] [µM],POD vs vehicle [19] [µM],POD vs vehicle [20] [µM]
O=C(O)C(F)(F)C(F)(F)C(F)(F)C(F)(F)C(F)(F)C(F)(F)C(F)(F)F [Perfluorooctanoic_acid],> 100,> 100,92.2,> 100,> 100,> 100,> 100,> 100,> 100,> 100,> 100,> 100,> 100,> 100,> 100,> 100,> 100,> 100,> 100,> 100
O=C(O)C(F)(F)C(F)(F)OC(F)(F)F [Perfluoro-3-methoxypropanoic_acid],> 100,> 100,> 100,> 100,> 100,> 100,> 100,> 100,> 100,> 100,> 100,> 100,> 100,> 100,> 100,> 100,> 100,> 100,> 100,> 100
NC(=O)C(F)(F)C(F)(F)C(F)(F)C(F)(F)C(N)=O [Octafluoroadipamide],> 100,> 100,> 100,> 100,> 100,> 100,> 100,> 100,> 100,> 100,> 100,> 100,> 100,> 100,> 100,> 100,> 100,> 100,> 100,> 100
OCCC(F)(F)C(F)(F)C(F)(F)C(F)(F)C(F)(F)C(F)(F)C(F)(F)C(F)(F)F [8:2 Fluorotelomer alcohol],> 100,> 100,> 100,> 100,> 100,> 100,> 100,> 100,> 100,> 100,> 100,> 100,> 100,> 100,> 100,> 100,> 100,> 100,> 100,> 100
"O=C(CC(=O)C(F)(F)C(F)(F)F)C(F)(F)F [3H,3H-Perfluoro-2,4-hexanedione]",> 100,80.5,87.4,> 100,> 100,> 100,> 100,79.9,> 100,25.1,> 100,> 100,> 100,21.9,> 100,> 100,> 100,> 100,> 100,> 100
O=C(O)CCC(F)(F)C(F)(F)C(F)(F)C(F)(F)C(F)(F)C(F)(F)C(F)(F)F [3-Perfluoroheptylpropanoic_acid],> 100,59.8,84.8,> 100,> 100,> 100,> 100,> 100,> 100,> 100,> 100,> 100,> 100,> 100,> 100,> 100,> 100,> 100,> 100,> 100
NC(O)(C(F)(F)F)C(F)(F)F [2-Aminohexafluoropropan-2-ol],> 100,> 100,72.8,> 100,> 100,> 100,> 100,> 100,> 100,> 100,> 100,> 100,> 100,> 100,> 100,> 100,> 100,> 100,> 100,> 100
NC(=O)C(F)(F)C(F)(F)C(F)(F)C(F)(F)C(F)(F)C(F)(F)C(F)(F)F [Perfluorooctanamide],> 100,> 100,> 100,> 100,> 100,> 100,> 100,> 100,> 100,> 100,> 100,> 100,> 100,> 100,> 100,> 100,> 100,> 100,> 100,> 100
O=S(=O)(O)CCC(F)(F)C(F)(F)C(F)(F)C(F)(F)F [4:2 Fluorotelomer sulfonic acid],> 100,> 100,> 100,> 100,> 100,> 100,> 100,> 100,> 100,> 100,> 100,> 100,> 100,> 100,> 100,> 100,> 100,> 100,> 100,> 100
NC(=O)C(F)(F)C(F)(F)C(F)(F)C(F)(F)F [Nonafluoropentanamide],> 100,84.9,> 100,> 100,> 100,> 100,> 100,> 100,> 100,> 100,> 100,> 100,> 100,> 100,> 100,> 100,> 100,> 100,> 100,> 100
"O=C(O)CCC(F)(F)C(F)(F)C(F)(F)C(F)(F)C(F)(F)F [2H,2H,3H,3H-Perfluorooctanoic_acid]",> 100,67.4,59.9,> 100,> 100,> 100,66.4,71.8,> 100,> 100,> 100,> 100,> 100,> 100,> 100,> 100,> 100,> 100,> 100,> 100

# Reference: the supplement of paper PMC11368000
